Literature values, collected in patent US20100087702A1, “Composition and method to modify sperm fertility and female gender ratio in mammals” (priority 2008, published 2010).

Legend:
[1] = system: early-staged mouse embryos; conditions: Williams, 1986
[2] = system: Hexose Monophosphate Shunt (HMS); conditions: Tiffen et al., 1991

Q: For `CCN(CC)c1cc2c(cc1C)Nc1ccc(N)cc1O2` [BCB, 2-methyl-3-diethylamino-7-amino phenoxazine], which “toxicity of BCB and its metabolites” value [1] is on record?
A: relatively non-toxic

Q: And the “increase in oxidation of glucose through the HMS” value [2]?
A: 15 fold
